This is an account of results in the supplement of paper PMC12463676, “Small-molecule dissolution of stress granules by redox modulation benefits ALS models” (Nature Chemical Biology, 2025).

Compound in one assay: NC(=O)CCCCC1CCSS1 [lipoamide]
The experiment in a line: thermal stability z-score vs DMSO; higher = more thermally stabilized by treatment. The following applies: HeLa, lipoamide concentration 100 µM. How it is done: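 Cellular thermal proteome profiling in HeLa cells. Cells were treated with 100 µM lipoamide for 1 h, with or without 1 mM arsenate for a further 1 h, then heated to ten temperatures (37-66.3 °C), and soluble protein was quantified by TMT mass spectrometry relative to 0.1% DMSO controls. The thermal stability score (sum of log2 fold changes minus the abundance score) was transformed to a z-score; mean of n = 3 experiments.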

Compound in a further assay: O=[As]([O-])(O)O.[K+] [potassium arsenate]
The assay is described as above. The conditions noted are these: HeLa; arsenate concentration 1 mM. How it is done:
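Cellular thermal proteome profiling in HeLa cells treated with 1 mM arsenate for 1 h (DMSO pretreatment), heated to ten temperatures (37-66.3 °C). Soluble protein was quantified by TMT mass spectrometry relative to DMSO controls; the thermal stability score was transformed to a z-score; mean of n = 3 experiments.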

The mark [1] stands for this setting: arsenate co-treatment: 1 mM arsenate 1 h.
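Note: each temperature applied for 3 min, abundance score taken as mean log2 fold change at the two lowest temperatures, z-score obtained by mean subtraction and division by SD.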

Sequence of UniProt P48506 (P48506 whole entry): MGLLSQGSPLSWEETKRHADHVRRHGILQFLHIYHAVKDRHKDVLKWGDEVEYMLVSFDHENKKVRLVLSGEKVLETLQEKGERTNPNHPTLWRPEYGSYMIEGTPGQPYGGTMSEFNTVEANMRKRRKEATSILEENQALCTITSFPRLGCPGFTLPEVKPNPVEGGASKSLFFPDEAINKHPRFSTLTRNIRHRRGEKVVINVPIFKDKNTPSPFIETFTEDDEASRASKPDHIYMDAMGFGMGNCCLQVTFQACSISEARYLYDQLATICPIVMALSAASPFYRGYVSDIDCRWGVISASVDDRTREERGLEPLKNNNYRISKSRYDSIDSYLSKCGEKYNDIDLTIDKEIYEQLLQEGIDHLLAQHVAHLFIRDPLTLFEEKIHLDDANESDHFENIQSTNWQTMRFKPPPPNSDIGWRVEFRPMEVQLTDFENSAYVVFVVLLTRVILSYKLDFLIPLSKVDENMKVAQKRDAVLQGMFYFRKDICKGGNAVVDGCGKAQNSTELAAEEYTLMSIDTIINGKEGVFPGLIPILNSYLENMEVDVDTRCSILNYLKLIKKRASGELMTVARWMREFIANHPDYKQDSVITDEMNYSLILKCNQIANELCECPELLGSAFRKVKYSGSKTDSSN
Sequence of UniProt P45985 (P45985 whole entry): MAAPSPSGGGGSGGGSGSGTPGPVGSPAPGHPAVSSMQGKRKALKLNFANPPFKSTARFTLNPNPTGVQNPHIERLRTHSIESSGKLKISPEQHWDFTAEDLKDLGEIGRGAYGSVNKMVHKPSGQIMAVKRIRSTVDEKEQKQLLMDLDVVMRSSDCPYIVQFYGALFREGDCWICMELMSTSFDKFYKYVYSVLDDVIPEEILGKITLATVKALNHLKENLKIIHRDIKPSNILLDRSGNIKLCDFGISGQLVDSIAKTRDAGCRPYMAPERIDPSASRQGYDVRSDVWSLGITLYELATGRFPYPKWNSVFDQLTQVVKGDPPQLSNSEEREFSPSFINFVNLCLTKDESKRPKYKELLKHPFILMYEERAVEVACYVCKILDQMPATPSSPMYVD
Sequence of UniProt P35237 (P35237 whole entry): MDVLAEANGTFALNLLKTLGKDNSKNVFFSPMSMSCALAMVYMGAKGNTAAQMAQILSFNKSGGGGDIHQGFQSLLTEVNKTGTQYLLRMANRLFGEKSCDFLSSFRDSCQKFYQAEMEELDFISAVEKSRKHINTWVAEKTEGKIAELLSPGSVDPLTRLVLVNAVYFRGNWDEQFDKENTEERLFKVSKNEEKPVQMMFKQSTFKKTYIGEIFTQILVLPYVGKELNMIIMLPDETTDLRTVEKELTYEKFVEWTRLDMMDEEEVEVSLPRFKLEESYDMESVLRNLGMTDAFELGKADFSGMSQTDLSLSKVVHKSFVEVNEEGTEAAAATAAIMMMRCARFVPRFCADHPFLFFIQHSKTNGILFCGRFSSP
Sequence of UniProt Q9UQ13 (Q9UQ13 whole entry): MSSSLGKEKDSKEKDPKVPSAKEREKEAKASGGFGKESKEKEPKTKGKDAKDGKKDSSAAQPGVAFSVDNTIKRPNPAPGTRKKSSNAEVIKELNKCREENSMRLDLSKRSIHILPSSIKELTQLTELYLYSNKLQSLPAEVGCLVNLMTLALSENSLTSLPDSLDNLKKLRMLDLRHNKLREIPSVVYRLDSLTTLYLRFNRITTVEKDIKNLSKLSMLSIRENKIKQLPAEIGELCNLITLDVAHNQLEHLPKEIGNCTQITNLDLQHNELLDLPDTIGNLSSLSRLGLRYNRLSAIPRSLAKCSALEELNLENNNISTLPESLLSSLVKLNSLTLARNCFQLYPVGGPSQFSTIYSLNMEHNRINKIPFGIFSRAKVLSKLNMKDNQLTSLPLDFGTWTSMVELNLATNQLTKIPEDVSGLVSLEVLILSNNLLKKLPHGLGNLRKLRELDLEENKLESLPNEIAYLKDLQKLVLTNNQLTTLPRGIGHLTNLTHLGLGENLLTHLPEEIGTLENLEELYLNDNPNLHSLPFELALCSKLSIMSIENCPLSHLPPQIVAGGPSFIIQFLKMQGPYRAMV
Sequence of UniProt O43493 (O43493 whole entry): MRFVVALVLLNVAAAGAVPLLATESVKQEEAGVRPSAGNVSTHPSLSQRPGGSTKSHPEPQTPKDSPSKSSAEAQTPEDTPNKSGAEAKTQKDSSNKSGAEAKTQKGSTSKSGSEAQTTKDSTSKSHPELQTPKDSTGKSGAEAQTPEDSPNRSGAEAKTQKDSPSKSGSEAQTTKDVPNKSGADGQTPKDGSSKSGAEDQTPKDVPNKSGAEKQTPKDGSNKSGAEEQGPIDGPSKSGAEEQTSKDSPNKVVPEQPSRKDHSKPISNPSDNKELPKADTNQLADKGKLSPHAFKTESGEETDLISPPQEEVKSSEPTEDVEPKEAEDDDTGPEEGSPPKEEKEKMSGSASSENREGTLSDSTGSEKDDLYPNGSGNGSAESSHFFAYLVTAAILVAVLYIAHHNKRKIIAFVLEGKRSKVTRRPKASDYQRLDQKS
Sequence of UniProt Q13049 (Q13049 whole entry): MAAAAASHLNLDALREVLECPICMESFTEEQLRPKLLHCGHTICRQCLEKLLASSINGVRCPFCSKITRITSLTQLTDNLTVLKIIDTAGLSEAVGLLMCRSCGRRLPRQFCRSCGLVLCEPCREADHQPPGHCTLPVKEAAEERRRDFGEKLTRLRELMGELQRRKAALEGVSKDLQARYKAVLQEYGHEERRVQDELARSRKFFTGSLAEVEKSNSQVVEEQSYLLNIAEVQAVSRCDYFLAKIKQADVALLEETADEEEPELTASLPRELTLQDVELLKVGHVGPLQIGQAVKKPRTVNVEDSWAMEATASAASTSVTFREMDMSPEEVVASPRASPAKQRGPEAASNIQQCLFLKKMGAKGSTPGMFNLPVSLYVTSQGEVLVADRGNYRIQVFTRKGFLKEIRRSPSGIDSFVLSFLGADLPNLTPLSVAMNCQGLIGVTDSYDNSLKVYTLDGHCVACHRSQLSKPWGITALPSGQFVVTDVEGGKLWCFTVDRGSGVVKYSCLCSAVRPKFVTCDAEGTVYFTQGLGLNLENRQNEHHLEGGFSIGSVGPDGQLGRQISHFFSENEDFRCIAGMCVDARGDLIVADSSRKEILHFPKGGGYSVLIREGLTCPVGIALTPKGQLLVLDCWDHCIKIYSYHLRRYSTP
Sequence of UniProt O94826 (O94826 whole entry): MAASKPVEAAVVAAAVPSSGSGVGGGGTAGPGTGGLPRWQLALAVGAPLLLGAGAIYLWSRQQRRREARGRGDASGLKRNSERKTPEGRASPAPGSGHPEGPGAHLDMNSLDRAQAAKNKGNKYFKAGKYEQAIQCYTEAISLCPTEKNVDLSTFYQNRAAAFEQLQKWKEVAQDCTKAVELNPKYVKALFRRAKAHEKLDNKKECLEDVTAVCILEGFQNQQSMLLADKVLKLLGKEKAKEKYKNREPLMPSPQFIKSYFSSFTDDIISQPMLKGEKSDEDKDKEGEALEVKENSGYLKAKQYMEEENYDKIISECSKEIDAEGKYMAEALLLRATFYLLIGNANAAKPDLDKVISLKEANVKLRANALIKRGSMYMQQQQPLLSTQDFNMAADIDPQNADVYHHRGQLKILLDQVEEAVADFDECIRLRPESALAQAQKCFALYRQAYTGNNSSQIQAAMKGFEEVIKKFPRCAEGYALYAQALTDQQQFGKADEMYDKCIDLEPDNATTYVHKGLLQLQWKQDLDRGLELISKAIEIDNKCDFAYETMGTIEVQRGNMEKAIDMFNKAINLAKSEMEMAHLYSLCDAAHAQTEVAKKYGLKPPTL
Sequence of UniProt Q13277 (Q13277 whole entry): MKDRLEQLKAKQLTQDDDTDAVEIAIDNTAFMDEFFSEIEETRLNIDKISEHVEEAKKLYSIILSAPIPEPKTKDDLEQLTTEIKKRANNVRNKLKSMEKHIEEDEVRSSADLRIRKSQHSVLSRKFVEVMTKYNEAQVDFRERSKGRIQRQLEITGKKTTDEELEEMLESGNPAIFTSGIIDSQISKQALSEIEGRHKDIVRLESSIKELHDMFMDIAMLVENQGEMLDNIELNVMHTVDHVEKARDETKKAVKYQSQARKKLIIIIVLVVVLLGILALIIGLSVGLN
Sequence of UniProt Q9UPQ3 (Q9UPQ3 whole entry): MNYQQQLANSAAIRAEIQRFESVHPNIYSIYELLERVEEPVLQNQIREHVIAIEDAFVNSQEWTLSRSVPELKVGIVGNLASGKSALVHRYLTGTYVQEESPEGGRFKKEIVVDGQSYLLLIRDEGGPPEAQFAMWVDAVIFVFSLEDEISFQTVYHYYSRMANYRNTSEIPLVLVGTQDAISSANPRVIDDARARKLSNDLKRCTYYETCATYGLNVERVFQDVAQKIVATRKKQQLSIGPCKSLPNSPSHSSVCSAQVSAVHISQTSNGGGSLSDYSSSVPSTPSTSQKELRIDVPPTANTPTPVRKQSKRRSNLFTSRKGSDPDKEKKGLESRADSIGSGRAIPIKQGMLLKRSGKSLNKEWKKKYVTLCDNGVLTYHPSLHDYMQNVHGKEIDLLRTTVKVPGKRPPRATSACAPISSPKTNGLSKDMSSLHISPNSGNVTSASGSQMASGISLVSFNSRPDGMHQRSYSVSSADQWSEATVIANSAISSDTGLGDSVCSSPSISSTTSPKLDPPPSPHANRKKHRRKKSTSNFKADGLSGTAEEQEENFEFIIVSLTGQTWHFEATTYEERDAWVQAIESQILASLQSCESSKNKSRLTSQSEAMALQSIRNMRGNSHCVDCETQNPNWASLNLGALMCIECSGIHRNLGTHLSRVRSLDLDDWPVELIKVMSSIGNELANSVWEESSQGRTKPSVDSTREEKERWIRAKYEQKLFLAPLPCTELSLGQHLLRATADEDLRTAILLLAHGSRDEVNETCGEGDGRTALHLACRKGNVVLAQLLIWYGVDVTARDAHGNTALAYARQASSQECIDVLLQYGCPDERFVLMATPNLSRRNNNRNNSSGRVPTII

As for RPTOR (UniProt Q8N122), the thermal stability z-score was 0.0585 in the assay with lipoamide (setting [1]), 0.132 with lipoamide (arsenate co-treatment: none) and 0.227 with potassium arsenate.
For OGT (UniProt O15294), the thermal stability z-score with lipoamide (setting [1]) was -0.039; in the assay with lipoamide (arsenate co-treatment: none) it was -0.08; in the assay with potassium arsenate, 0.254.
For PCCA (UniProt P05165) the same measures were 0.202, 0.198 and -0.314.
On to NFX1 (UniProt Q12986), for which the thermal stability z-score with lipoamide (setting [1]) is -1.53; in the assay with lipoamide (arsenate co-treatment: none), -1.5; with potassium arsenate, -3.38.
With GCLC (UniProt P48506), the thermal stability z-score in the assay with lipoamide (setting [1]) was found to be 0.874; in the assay with lipoamide (arsenate co-treatment: none), 0.402; with potassium arsenate, 1.56.
Take TRAPPC11 (UniProt Q7Z392): the thermal stability z-score with lipoamide (setting [1]) was -0.549; in the assay with lipoamide (arsenate co-treatment: none), -1.8; with potassium arsenate, -0.537.
Taken in the same sequence, the figures for TRIM32 (UniProt Q13049) were -0.257, -0.125 and -3.56.
Regarding MAP2K4 (UniProt P45985), the thermal stability z-score with lipoamide (setting [1]) was -0.37; in the assay with lipoamide (arsenate co-treatment: none), 0.139; with potassium arsenate, -0.444.
For TGOLN2 (UniProt O43493) the same measures were 0.152, 0.0237 and -0.275.
For FAM65A (UniProt Q6ZS17) the same measures were 0.215, 0.0539 and -0.0314.
In the case of TOMM70 (UniProt O94826), the values for the thermal stability z-score with lipoamide (setting [1]), with lipoamide (arsenate co-treatment: none) and in the assay with potassium arsenate were -0.0648, 0.115 and -0.0776, respectively.
In the case of STX3 (UniProt Q13277), the thermal stability z-score with lipoamide (setting [1]) is 0.221; in the assay with lipoamide (arsenate co-treatment: none), -0.315; with potassium arsenate, -0.39.
Consider AP1G2 (UniProt O75843), for which the thermal stability z-score amounted to 0.17 with lipoamide (setting [1]), 0.114 with lipoamide (arsenate co-treatment: none) and 0.167 in the assay with potassium arsenate.
For CEP41 (UniProt Q9BYV8) the same measures were -0.0855, -0.44 and -0.106.
For the target EI24 (UniProt O14681), the results for the thermal stability z-score in the assay with lipoamide (setting [1]), with lipoamide (arsenate co-treatment: none) and with potassium arsenate were 0.221, -0.249 and -0.123, respectively.
On to ANXA4 (UniProt P09525), for which the thermal stability z-score came out at 1.42 with lipoamide (setting [1]), 1.61 with lipoamide (arsenate co-treatment: none) and 0.225 with potassium arsenate.
Regarding SHOC2 (UniProt Q9UQ13), the thermal stability z-score is 0.22 with lipoamide (setting [1]), -0.229 with lipoamide (arsenate co-treatment: none) and -0.00952 with potassium arsenate.
Regarding KIF11 (UniProt P52732), the thermal stability z-score in the assay with lipoamide (setting [1]) is -0.347; in the assay with lipoamide (arsenate co-treatment: none), 0.00677; with potassium arsenate it was 1.19.
For AGAP1 (UniProt Q9UPQ3) the same measures were -1.59, -2.08 and -1.91.
For EXOG (UniProt Q9Y2C4) the same measures were -0.359, -0.451 and 0.587.
Take PDK2 (UniProt Q15119): the results for the thermal stability z-score with lipoamide (setting [1]), with lipoamide (arsenate co-treatment: none) and with potassium arsenate were 0.292, 0.0166 and 0.0862, respectively.
In the case of SERPINB6 (UniProt P35237), the thermal stability z-score with lipoamide (setting [1]) is -0.206; with lipoamide (arsenate co-treatment: none), -0.157; with potassium arsenate, -1.01.
Take CDKAL1 (UniProt Q5VV42): the thermal stability z-score with lipoamide (setting [1]) was 1.09; with lipoamide (arsenate co-treatment: none) it was 0.835; in the assay with potassium arsenate, -0.903.
